Assays:
[1] = molecular target: T1, Glutamate receptor ionotropic, kainate 5 (Homo sapiens, UniProt Q16478)
T1 sequence (Q16478 whole entry): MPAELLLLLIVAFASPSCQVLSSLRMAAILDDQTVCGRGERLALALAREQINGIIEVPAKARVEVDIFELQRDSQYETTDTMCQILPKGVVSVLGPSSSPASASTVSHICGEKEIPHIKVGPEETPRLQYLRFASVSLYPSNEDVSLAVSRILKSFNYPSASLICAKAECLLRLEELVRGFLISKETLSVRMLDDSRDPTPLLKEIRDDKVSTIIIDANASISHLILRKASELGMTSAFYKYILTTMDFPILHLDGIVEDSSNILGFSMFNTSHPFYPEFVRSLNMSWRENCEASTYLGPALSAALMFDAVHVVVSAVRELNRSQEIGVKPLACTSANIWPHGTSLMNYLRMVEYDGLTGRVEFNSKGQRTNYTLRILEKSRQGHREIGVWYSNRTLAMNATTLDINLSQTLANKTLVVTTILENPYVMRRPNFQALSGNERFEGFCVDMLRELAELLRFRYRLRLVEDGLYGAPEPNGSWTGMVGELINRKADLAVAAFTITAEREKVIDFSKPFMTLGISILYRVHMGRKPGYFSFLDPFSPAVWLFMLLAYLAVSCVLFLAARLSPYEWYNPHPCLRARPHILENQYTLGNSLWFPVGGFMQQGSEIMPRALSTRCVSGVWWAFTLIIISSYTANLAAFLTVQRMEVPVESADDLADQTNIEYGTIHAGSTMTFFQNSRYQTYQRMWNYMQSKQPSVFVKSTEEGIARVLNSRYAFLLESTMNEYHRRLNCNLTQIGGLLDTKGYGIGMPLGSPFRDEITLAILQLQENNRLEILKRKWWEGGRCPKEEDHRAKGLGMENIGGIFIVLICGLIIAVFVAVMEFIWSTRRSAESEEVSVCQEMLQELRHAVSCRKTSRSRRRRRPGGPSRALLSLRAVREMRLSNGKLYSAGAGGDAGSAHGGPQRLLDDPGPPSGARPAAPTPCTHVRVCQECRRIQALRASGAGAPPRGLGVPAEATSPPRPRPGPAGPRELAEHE

[2] = molecular target: Glutamate receptor ionotropic, kainate 3 (Homo sapiens, UniProt Q13003)
Glutamate receptor ionotropic, kainate 3, sequence (Q13003 whole entry): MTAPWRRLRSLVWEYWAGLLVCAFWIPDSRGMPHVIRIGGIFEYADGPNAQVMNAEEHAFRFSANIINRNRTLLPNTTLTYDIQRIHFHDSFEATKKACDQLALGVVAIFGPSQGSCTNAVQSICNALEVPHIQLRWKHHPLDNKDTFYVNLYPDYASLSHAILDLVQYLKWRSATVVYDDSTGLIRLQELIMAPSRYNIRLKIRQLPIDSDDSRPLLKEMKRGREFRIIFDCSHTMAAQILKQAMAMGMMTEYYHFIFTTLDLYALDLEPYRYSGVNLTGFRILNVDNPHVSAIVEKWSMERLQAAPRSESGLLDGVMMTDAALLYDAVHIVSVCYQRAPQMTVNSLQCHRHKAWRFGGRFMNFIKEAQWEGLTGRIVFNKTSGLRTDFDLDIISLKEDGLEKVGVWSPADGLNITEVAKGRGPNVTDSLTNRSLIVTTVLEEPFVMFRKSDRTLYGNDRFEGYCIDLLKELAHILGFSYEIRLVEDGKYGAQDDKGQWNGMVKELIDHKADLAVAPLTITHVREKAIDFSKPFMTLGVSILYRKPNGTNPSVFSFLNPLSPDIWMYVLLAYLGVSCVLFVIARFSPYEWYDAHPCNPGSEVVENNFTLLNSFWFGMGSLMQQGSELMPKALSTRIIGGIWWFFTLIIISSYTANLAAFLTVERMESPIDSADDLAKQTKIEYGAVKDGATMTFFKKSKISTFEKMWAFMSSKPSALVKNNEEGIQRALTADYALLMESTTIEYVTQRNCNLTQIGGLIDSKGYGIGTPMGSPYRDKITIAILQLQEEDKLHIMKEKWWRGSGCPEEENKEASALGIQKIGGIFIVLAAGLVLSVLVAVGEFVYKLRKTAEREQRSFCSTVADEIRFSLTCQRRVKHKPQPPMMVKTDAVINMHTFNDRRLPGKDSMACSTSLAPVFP

[3] = molecular target: Glutamate receptor ionotropic, kainate 2 (Homo sapiens, UniProt Q13002)
Glutamate receptor ionotropic, kainate 2, sequence (Q13002 whole entry): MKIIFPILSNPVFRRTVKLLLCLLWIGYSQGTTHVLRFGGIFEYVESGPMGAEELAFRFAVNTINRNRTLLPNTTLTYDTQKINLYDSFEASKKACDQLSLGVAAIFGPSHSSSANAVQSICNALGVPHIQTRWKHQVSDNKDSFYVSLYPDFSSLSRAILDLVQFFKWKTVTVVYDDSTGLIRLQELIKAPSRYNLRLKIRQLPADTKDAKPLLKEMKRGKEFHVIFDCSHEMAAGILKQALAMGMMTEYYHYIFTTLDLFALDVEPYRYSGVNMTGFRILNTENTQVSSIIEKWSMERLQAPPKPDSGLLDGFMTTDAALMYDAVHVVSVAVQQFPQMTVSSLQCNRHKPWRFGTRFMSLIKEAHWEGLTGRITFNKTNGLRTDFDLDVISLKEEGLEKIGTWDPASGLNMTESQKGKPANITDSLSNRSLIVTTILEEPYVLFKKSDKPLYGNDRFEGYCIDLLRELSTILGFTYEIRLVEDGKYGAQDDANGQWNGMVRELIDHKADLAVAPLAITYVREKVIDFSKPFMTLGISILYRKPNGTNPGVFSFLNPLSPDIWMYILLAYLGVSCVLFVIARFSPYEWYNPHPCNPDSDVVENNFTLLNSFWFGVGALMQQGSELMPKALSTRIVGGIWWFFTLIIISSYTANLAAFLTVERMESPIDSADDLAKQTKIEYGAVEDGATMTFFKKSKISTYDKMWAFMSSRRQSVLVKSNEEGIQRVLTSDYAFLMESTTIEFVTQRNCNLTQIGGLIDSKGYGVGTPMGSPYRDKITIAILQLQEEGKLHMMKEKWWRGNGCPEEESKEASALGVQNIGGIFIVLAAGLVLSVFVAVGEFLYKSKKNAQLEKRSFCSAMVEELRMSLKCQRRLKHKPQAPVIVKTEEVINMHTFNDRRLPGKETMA

Glutamate receptor 4 = Glutamate receptor 4 (Homo sapiens, UniProt P48058)
Glutamate receptor 4, sequence (P48058 whole entry): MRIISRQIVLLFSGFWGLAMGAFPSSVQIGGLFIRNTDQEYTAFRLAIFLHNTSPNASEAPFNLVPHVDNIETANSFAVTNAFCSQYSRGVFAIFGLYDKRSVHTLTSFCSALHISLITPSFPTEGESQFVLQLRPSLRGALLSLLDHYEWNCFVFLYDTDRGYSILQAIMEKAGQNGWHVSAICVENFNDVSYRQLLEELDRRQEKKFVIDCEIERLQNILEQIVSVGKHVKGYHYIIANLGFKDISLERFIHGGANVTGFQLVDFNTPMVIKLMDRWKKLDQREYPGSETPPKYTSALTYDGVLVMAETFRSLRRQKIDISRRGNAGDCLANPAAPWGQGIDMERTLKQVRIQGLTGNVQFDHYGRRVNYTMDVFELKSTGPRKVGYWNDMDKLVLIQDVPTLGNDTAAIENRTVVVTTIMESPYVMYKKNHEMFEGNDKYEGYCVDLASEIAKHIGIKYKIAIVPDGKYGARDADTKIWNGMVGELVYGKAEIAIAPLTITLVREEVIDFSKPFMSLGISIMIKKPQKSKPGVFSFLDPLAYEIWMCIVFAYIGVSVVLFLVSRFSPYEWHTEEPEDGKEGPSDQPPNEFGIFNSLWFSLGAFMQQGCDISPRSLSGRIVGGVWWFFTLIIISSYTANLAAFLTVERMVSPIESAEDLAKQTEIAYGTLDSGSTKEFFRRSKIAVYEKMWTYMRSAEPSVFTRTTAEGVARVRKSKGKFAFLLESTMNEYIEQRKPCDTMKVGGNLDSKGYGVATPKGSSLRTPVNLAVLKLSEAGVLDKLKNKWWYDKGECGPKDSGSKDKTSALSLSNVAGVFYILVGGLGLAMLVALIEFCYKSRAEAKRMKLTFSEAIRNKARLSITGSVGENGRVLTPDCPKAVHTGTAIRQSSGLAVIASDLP

Glutamate receptor 1 = Glutamate receptor 1 (Homo sapiens, UniProt P42261)
Glutamate receptor 1, sequence (P42261 whole entry): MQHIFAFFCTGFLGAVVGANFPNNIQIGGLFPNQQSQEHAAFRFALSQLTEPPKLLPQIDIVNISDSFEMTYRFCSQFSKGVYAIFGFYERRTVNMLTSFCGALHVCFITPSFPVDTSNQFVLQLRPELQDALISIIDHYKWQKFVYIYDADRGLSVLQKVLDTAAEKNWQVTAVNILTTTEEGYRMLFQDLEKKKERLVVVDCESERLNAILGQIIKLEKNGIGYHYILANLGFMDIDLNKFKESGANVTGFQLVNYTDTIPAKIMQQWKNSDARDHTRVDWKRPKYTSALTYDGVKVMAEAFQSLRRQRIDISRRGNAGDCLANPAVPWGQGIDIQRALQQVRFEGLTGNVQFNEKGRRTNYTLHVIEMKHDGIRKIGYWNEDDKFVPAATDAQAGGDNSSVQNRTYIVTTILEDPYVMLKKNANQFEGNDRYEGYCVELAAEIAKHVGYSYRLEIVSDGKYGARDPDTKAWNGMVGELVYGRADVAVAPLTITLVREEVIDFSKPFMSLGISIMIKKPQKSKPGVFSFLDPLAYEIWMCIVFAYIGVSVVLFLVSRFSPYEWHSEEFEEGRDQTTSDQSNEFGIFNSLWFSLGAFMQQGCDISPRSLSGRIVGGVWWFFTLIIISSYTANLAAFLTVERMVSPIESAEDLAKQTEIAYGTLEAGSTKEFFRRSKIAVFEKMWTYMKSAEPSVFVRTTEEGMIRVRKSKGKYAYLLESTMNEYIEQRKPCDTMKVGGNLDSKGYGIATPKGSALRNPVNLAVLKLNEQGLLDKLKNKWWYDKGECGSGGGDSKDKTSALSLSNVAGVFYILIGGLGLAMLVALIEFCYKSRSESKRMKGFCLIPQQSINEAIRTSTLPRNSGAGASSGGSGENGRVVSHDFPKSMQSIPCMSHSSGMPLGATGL

Glutamate receptor 2 = Glutamate receptor 2 (Homo sapiens, UniProt P42262)
Glutamate receptor 2, sequence (P42262 whole entry): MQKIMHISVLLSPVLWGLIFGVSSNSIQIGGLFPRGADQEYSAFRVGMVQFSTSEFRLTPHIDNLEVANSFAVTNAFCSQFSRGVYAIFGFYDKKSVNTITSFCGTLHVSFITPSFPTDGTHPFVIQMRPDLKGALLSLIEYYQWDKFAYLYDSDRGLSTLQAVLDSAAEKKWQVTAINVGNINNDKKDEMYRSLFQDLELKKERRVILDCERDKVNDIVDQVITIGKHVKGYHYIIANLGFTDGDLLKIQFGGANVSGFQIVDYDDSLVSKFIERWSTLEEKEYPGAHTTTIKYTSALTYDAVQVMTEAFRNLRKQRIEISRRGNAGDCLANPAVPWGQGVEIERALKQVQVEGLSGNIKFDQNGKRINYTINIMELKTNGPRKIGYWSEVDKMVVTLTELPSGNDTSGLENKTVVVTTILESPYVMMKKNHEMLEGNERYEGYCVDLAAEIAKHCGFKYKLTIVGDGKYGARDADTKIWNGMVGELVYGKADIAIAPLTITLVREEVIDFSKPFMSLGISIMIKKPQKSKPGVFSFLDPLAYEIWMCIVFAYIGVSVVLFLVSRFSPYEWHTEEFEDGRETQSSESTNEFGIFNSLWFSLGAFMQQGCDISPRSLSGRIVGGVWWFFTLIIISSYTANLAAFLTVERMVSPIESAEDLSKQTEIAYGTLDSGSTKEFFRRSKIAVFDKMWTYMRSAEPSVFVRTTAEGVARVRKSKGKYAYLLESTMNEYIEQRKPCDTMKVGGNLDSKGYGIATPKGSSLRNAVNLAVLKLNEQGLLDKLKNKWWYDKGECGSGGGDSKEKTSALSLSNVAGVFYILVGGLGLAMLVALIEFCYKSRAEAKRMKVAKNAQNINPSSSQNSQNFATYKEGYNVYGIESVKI

Ki [1] [µM]	Ki [2] [µM]	Ki [3] [µM]	Ki (Glutamate receptor 4) [µM]	Ki (Glutamate receptor 1) [µM]	Ki (Glutamate receptor 2) [µM]	SMILES
4.2	> 10	> 10	> 10	–	–	O=C(O)[C@@H]1C[C@H]2C[C@@H](CCc3nn[nH]n3)CC[C@H]2CN1
0.05	–	> 10	> 10	> 10	> 10	O=C(O)C1CC(F)(F)CN1C[C@H]1CC[C@H]2CN[C@H](C(=O)O)C[C@H]2C1 (some centres undefined) [LY-466195]
1.55	–	–	–	–	–	O=C(O)[C@@H]1C[C@H]2C[C@@H](Nc3ccccc3-c3nnn[nH]3)CC[C@H]2CN1 [LY 457691]
4	> 10	> 10	> 10	> 10	> 10	O=C(O)c1ccc(C[C@H]2CC[C@H]3CN[C@H](C(=O)O)C[C@H]3C2)cc1 [LY 382884]
3.41	–	–	–	–	–	O=C(O)[C@@H]1C[C@H]2C[C@@H](CS(=O)(=O)c3nnc[nH]3)CC[C@H]2CN1 [LY-302679]
1.69	–	–	–	–	–	O=C(O)[C@@H]1C[C@H]2C[C@@H](Oc3ccccc3-c3nnn[nH]3)CC[C@H]2CN1 [LY-458545]
3.06	–	–	–	–	> 10	O=C(O)[C@@H]1C[C@H]2CC(COCc3nnn[nH]3)CC[C@H]2CN1 (some centres undefined) [LY-294486]

SMILES	Ki [1] [µM]	Ki [2] [µM]	Ki [3] [µM]	Ki (Glutamate receptor 4) [µM]	Ki (Glutamate receptor 1) [µM]	Ki (Glutamate receptor 2) [µM]
CCC(C)OC(=O)[C@@H]1C[C@H]2C[C@@H](Oc3ccccc3-c3nnn[nH]3)CC[C@H]2CN1 (some centres undefined) [LY-467711]	7.4	–	–	–	–	> 10
CCC(CC)COC(=O)[C@@H]1C[C@H]2C[C@@H](Nc3ccccc3-c3nnn[nH]3)CC[C@H]2CN1 [LY-525327]	> 10	–	–	–	–	> 10

Reference: BindingDB's records for doi:10.1124/jpet.106.101428 (Eli Lilly, 2006)
